From US8192962B2, “Processes for detecting toxic substances” (Daikin Industries, Ltd., priority 2001, dated 2012)

System: Detoxification protein genes
Assay: DNA chip mRNA expression in yeast, detoxification protein genes (Table 8)
Format: cell-based, Saccharomyces cerevisiae S288C
Description: Yeast (Saccharomyces cerevisiae S288C (α SUC2mal mel gap2 CUP1)) were incubated at 25° C. on YPD medium (yeast extract 1%, polypepton 2%, glucose 2%). One of toxic chemical substances was added to the cells at logarithmic growth phase, and the cells were further incubated for two hours. Cells were cultured without any chemical substance in the same condition, and were used as control. Concentrations of the chemical substances were defined to inhibit the growth of the yeast but not lead to death.
After completion of the incubation, the culture was centrifuged to collect the cells. To the cells, sodium acetate buffer (50 mM sodium acetate, 10 mM EDTA, 1% SDS) was added, and the mixture was shaken at 65° C. for five minutes, followed by returning to room temperature, and obtaining the supernatant, of which the procedures were repeated two times. To the supernatant, ½ amount of a solution of phenol/chloroform was added, and the mixture was centrifuged to give a supernatant, which was added with an equal amount of chloroform, and the mixture was centrifuged to give a supernatant. To the supernatant, an equal amount of isopropanol containing 0.3 M sodium acetate was added, and the mixture was allowed to stand at room temperature for 30 minutes, after which the mixture was centrifuged to give a sediment of the whole RNAs. Seventy % ethanol was added to the sediment, and the mixture was again centrifuged to give a sediment, which was then dried and dissolved in water. mRNA was isolated from the whole RNAs as followings. In view of the fact that a poly A chain is attached to the 3′ terminus of mRNA, a polynucleotide having a poly T structure which was immobilized on the surface of latex beads was used to trap the mRNA, and then the mRNA was washed and eluted with spine column (Oligotex-dT30<Super>mRNA Purification Kit, Takara). Reverse transcription of the mRNA was conducted with a reverse transcriptase (Super Script II Reverse Transcriptase; catalogue No. 18064-014, GibcoBRL) using fluorescence-labeled nucleotides to give cDNAs that were introduced with Cy3-dUTP or Cy5-dUTP during the reverse transcription.
The labeled cDNAs were dissolved in TE buffer (10mM Tris-HCl/1 mM EDTA, pH8.0), and the solution was dropped on the DNA chip containing the whole genes of yeast (DNA Chip Research Inc. Japan) so that the cDNAs were hybridized on the DNA chip at 65° C. for over 12 hours. The fluoresces intensity of the DNA chip was read with a scanner, and the ratio relative to the fluorescence intensity resulting from the absence of chemical substance was estimated as the following, which is shown in Tables 1 to 9: […]

## C[S+](C)[O-] [(15), dimethylsulfoxide]
Yeast gene YBL064C
  The level of expressed mRNA in the presence of chemical substance/The level of expressed mRNA in the absence of chemical substance: 1.3
Yeast gene YBR008C
  The level of expressed mRNA in the presence of chemical substance/The level of expressed mRNA in the absence of chemical substance: 0.8
Yeast gene YBR244W
  The level of expressed mRNA in the presence of chemical substance/The level of expressed mRNA in the absence of chemical substance: 0.4
Yeast gene YBR293W
  The level of expressed mRNA in the presence of chemical substance/The level of expressed mRNA in the absence of chemical substance: 3.1
Yeast gene YCR083W
  The level of expressed mRNA in the presence of chemical substance/The level of expressed mRNA in the absence of chemical substance: 1.0
Yeast gene YDL100C
  The level of expressed mRNA in the presence of chemical substance/The level of expressed mRNA in the absence of chemical substance: 1.0
Yeast gene YDR256C
  The level of expressed mRNA in the presence of chemical substance/The level of expressed mRNA in the absence of chemical substance: 1.0
Yeast gene YDR453C
  The level of expressed mRNA in the presence of chemical substance/The level of expressed mRNA in the absence of chemical substance: 2.3
Yeast gene YDR513W
  The level of expressed mRNA in the presence of chemical substance/The level of expressed mRNA in the absence of chemical substance: 1.3
Yeast gene YDR538W
  The level of expressed mRNA in the presence of chemical substance/The level of expressed mRNA in the absence of chemical substance: 1.0
Yeast gene YER185W
  The level of expressed mRNA in the presence of chemical substance/The level of expressed mRNA in the absence of chemical substance: 1.7
Yeast gene YGL013C
  The level of expressed mRNA in the presence of chemical substance/The level of expressed mRNA in the absence of chemical substance: 1.0
Yeast gene YGR088W
  The level of expressed mRNA in the presence of chemical substance/The level of expressed mRNA in the absence of chemical substance: 0.7
Yeast gene YGR138C
  The level of expressed mRNA in the presence of chemical substance/The level of expressed mRNA in the absence of chemical substance: 4.5
Yeast gene YGR197C
  The level of expressed mRNA in the presence of chemical substance/The level of expressed mRNA in the absence of chemical substance: 1.0
Yeast gene YGR209C
  The level of expressed mRNA in the presence of chemical substance/The level of expressed mRNA in the absence of chemical substance: 1.3
Yeast gene YHL040C
  The level of expressed mRNA in the presence of chemical substance/The level of expressed mRNA in the absence of chemical substance: 3.4
Yeast gene YHR008C
  The level of expressed mRNA in the presence of chemical substance/The level of expressed mRNA in the absence of chemical substance: 1.7
Yeast gene YHR048W
  The level of expressed mRNA in the presence of chemical substance/The level of expressed mRNA in the absence of chemical substance: 0.9
Yeast gene YHR053C
  The level of expressed mRNA in the presence of chemical substance/The level of expressed mRNA in the absence of chemical substance: 0.3
Yeast gene YHR055C
  The level of expressed mRNA in the presence of chemical substance/The level of expressed mRNA in the absence of chemical substance: 0.5
Yeast gene YJL101C
  The level of expressed mRNA in the presence of chemical substance/The level of expressed mRNA in the absence of chemical substance: 0.5
Yeast gene YJR104C
  The level of expressed mRNA in the presence of chemical substance/The level of expressed mRNA in the absence of chemical substance: 1.3
Yeast gene YKL026C
  The level of expressed mRNA in the presence of chemical substance/The level of expressed mRNA in the absence of chemical substance: 0.8
Yeast gene YKL064W
  The level of expressed mRNA in the presence of chemical substance/The level of expressed mRNA in the absence of chemical substance: 0.7
Yeast gene YKR066C
  The level of expressed mRNA in the presence of chemical substance/The level of expressed mRNA in the absence of chemical substance: 0.6
Yeast gene YLL028W
  The level of expressed mRNA in the presence of chemical substance/The level of expressed mRNA in the absence of chemical substance: 3.1
Yeast gene YLR043C
  The level of expressed mRNA in the presence of chemical substance/The level of expressed mRNA in the absence of chemical substance: 0.5
Yeast gene YLR046C
  The level of expressed mRNA in the presence of chemical substance/The level of expressed mRNA in the absence of chemical substance: 0.8
Yeast gene YML116W
  The level of expressed mRNA in the presence of chemical substance/The level of expressed mRNA in the absence of chemical substance: 1.9
Yeast gene YMR038C
  The level of expressed mRNA in the presence of chemical substance/The level of expressed mRNA in the absence of chemical substance: 0.6
Yeast gene YNL241C
  The level of expressed mRNA in the presence of chemical substance/The level of expressed mRNA in the absence of chemical substance: 7.0
Yeast gene YNL259C
  The level of expressed mRNA in the presence of chemical substance/The level of expressed mRNA in the absence of chemical substance: 0.7
Yeast gene YOL158C
  The level of expressed mRNA in the presence of chemical substance/The level of expressed mRNA in the absence of chemical substance: 0.9
Yeast gene YOR153W
  The level of expressed mRNA in the presence of chemical substance/The level of expressed mRNA in the absence of chemical substance: 3.6
Yeast gene YOR251C
  The level of expressed mRNA in the presence of chemical substance/The level of expressed mRNA in the absence of chemical substance: 0.6
Yeast gene YOR273C
  The level of expressed mRNA in the presence of chemical substance/The level of expressed mRNA in the absence of chemical substance: 0.8
Yeast gene YPR200C
  The level of expressed mRNA in the presence of chemical substance/The level of expressed mRNA in the absence of chemical substance: 0.7
